Results as given in ChEMBL document CHEMBL5724914, “Linking interpersonal differences in gut microbiota composition and drug biotransformation activity” (2024).

Legend:
[1] = (§1) The drug is tested on WLS-027 corresponding to human gut metagenome with ENA study accession number: PRJEB37062 and ENA sample accession number: ERS12561744 for biotransformation under anaerobic condition. The drug concentrations were measured over 9 timepoints collected between 0 and 24 hours of incubation by liquid-chromatography-coupled mass spectrometry (LC–MS); conditions: 2 µM
[2] = as §1, with “Z-022” for “WLS-027”, “mouse” for “human”, “ERS12561821” for “ERS12561744”; conditions: 2 µM
[3] = as §1, with “WLS-038” for “WLS-027”, “ERS12561745” for “ERS12561744”; conditions: 2 µM
[4] = as §1, with “Z-029” for “WLS-027”, “rat” for “human”, “ERS12561828” for “ERS12561744”; conditions: 2 µM
[5] = as §1, with “WLS-090” for “WLS-027”, “ERS12561753” for “ERS12561744”; conditions: 2 µM
[6] = human gut metagenome, 24 h, 2 µM
[7] = human gut metagenome, 24 h, 2 µM; remark: listed apart in the source
[8] = as §1, with “Z-011” for “WLS-027”, “mouse” for “human”, “ERS12561811” for “ERS12561744”; conditions: 2 µM
[9] = human gut metagenome, 24 h, 2 µM; remark: listed apart in the source
Note: call rule not given here.

Row | Compound | Bacterial Biotransformation [1] | Bacterial Biotransformation [2] | Bacterial Biotransformation [3] | Bacterial Biotransformation [4] | Bacterial Biotransformation [5] | Bacterial Biotransformation [6] | Bacterial Biotransformation [7] | Bacterial Biotransformation [8] | Bacterial Biotransformation [9]
1 | CSc1ccc2c(c1)C(N1CCN(C)CC1)Cc1ccccc1S2.O=C(O)/C=C\C(=O)O (stereo not drawn) | Compound NOT metabolized | Compound metabolized | Compound NOT metabolized | Compound NOT metabolized | Compound metabolized | Compound NOT metabolized | Compound NOT metabolized | Compound metabolized | Compound NOT metabolized
2 | CCN(CC)C(=O)C1(c2ccccc2)CC1CN (stereo not drawn) | Compound NOT metabolized | Compound NOT metabolized | Compound NOT metabolized | Compound NOT metabolized | Compound NOT metabolized | Compound NOT metabolized | Compound NOT metabolized | Compound NOT metabolized | Compound NOT metabolized
3 | COc1ccc(/C=C/C(=O)Nc2ccccc2C(=O)O)cc1OC | Compound metabolized | Compound metabolized | Compound metabolized | Compound NOT metabolized | Compound NOT metabolized | Compound NOT metabolized | Compound NOT metabolized | Compound NOT metabolized | Compound NOT metabolized
4 | Nc1nc(NC2CC2)c2ncn([C@H]3C=C[C@@H](CO)C3)c2n1.Nc1nc(NC2CC2)c2ncn([C@H]3C=C[C@@H](CO)C3)c2n1.O=S(=O)(O)O [ABACAVIR SULFATE] | Compound NOT metabolized | Compound metabolized | Compound NOT metabolized | Compound NOT metabolized | Compound metabolized | Compound metabolized | Compound metabolized | Compound metabolized | Compound NOT metabolized
5 | CCN(CC)CCNC(=O)c1ccc(NC(C)=O)cc1 [ACECAINIDE] | Compound NOT metabolized | Compound NOT metabolized | Compound NOT metabolized | Compound NOT metabolized | Compound metabolized | Compound metabolized | Compound NOT metabolized | Compound NOT metabolized | Compound NOT metabolized
6 | O=C1CN2Cc3c(ccc(Cl)c3Cl)N=C2N1 [ANAGRELIDE] | Compound NOT metabolized | Compound metabolized | Compound metabolized | Compound NOT metabolized | Compound metabolized | Compound metabolized | Compound NOT metabolized | Compound NOT metabolized | Compound NOT metabolized
7 | CN(C)C(=O)Oc1cc(OC(=O)N(C)C)cc(C(O)CNC(C)(C)C)c1 (stereo not drawn) [BAMBUTEROL] | Compound NOT metabolized | Compound metabolized | Compound NOT metabolized | Compound NOT metabolized | Compound metabolized | Compound metabolized | Compound NOT metabolized | Compound NOT metabolized | Compound metabolized
8 | CCc1oc2ccccc2c1C(=O)c1cc(Br)c(O)c(Br)c1 [BENZBROMARONE] | Compound metabolized | Compound NOT metabolized | Compound metabolized | Compound NOT metabolized | Compound metabolized | Compound metabolized | Compound NOT metabolized | Compound metabolized | Compound NOT metabolized
9 | CC(C)C[C@H]1C(=O)N2CCC[C@H]2[C@]2(O)O[C@](NC(=O)[C@@H]3C=C4c5cccc6[nH]c(Br)c(c56)C[C@H]4N(C)C3)(C(C)C)C(=O)N12.CS(=O)(=O)O [BROMOCRIPTINE MESYLATE] | Compound metabolized | Compound metabolized | Compound metabolized | Compound metabolized | Compound metabolized | Compound NOT metabolized | Compound NOT metabolized | Compound metabolized | –
10 | CC(NC(C)(C)C)C(=O)c1cccc(Cl)c1 (stereo not drawn) [BUPROPION] | Compound NOT metabolized | Compound NOT metabolized | Compound NOT metabolized | Compound NOT metabolized | Compound NOT metabolized | Compound metabolized | Compound NOT metabolized | Compound NOT metabolized | Compound NOT metabolized
11 | O=C1CC2(CCCC2)CC(=O)N1CCCCN1CCN(c2ncccn2)CC1 [BUSPIRONE] | Compound NOT metabolized | Compound NOT metabolized | Compound NOT metabolized | Compound NOT metabolized | Compound metabolized | Compound metabolized | Compound NOT metabolized | Compound NOT metabolized | Compound NOT metabolized
12 | CCCC(C)(COC(N)=O)COC(=O)NC(C)C (stereo not drawn) [CARISOPRODOL] | Compound metabolized | Compound metabolized | Compound metabolized | Compound NOT metabolized | Compound metabolized | Compound metabolized | Compound NOT metabolized | Compound metabolized | Compound NOT metabolized
13 | COc1ccccc1OCCNCC(O)COc1cccc2[nH]c3ccccc3c12 (stereo not drawn) [CARVEDILOL] | Compound metabolized | Compound NOT metabolized | Compound metabolized | Compound NOT metabolized | Compound metabolized | Compound metabolized | Compound NOT metabolized | Compound NOT metabolized | Compound NOT metabolized
14 | CCOC(=O)[C@H](CCc1ccccc1)N[C@@H](C)C(=O)N1CCC[C@H]1C(=O)O.O=C(O)/C=C\C(=O)O [ENALAPRIL MALEATE] | Compound NOT metabolized | Compound NOT metabolized | Compound NOT metabolized | Compound NOT metabolized | Compound NOT metabolized | Compound NOT metabolized | Compound NOT metabolized | – | Compound NOT metabolized
15 | CN1[C@@H]2CC[C@H]1C[C@@H](OC(=O)[C@H](CO)c1ccccc1)C2 [HYOSCYAMINE] | Compound NOT metabolized | Compound NOT metabolized | – | Compound NOT metabolized | – | Compound metabolized | – | – | Compound NOT metabolized
16 | COC1=C(OC)C(=O)C(CCCCCCCCCCO)=C(C)C1=O [IDEBENONE] | Compound metabolized | Compound NOT metabolized | Compound metabolized | Compound NOT metabolized | – | Compound metabolized | Compound metabolized | Compound metabolized | Compound NOT metabolized
17 | C#C[C@]1(OC(C)=O)CC[C@H]2[C@@H]3CCC4=CC(=O)CC[C@@H]4[C@H]3CC[C@@]21C [NORETHINDRONE ACETATE] | Compound metabolized | Compound metabolized | Compound metabolized | Compound metabolized | – | Compound metabolized | Compound metabolized | Compound metabolized | Compound NOT metabolized
18 | Cc1cc2c(s1)Nc1ccccc1N=C2N1CCN(C)CC1 [OLANZAPINE] | Compound NOT metabolized | Compound NOT metabolized | Compound NOT metabolized | Compound NOT metabolized | – | Compound NOT metabolized | Compound metabolized | Compound NOT metabolized | Compound NOT metabolized
19 | CC(=O)OCC(=O)NCCCOc1cccc(CN2CCCCC2)c1 [ROXATIDINE ACETATE] | – | Compound metabolized | Compound metabolized | Compound metabolized | Compound metabolized | Compound NOT metabolized | Compound metabolized | Compound metabolized | Compound metabolized
20 | CCCCCNC(=N)N/N=C/c1c[nH]c2ccc(OC)cc12.O=C(O)/C=C\C(=O)O [TEGASEROD MALEATE] | Compound NOT metabolized | Compound NOT metabolized | – | Compound NOT metabolized | Compound metabolized | Compound NOT metabolized | Compound NOT metabolized | Compound NOT metabolized | –
